Measured values as given in publication PMC10189451, “Palmitic acid‐ and cysteine‐functionalized nanoparticles overcome mucus and epithelial barrier for oral delivery of drug” (Bioengineering & Translational Medicine, 2023).

How the values were obtained:
DSS‐induced colitis = assay: Efficacy on DSS‐induced colitis mice; type: in vivo, BALB/c mice; details: daily oral 7 days, CUR 50 mg/kg
Description: Male BALB/c mice (6–8 weeks, 20–25 g) were randomly divided into five groups with eight mice in each group after 1 week of acclimation. Except for the normal control group, the remaining four groups were given 3% DSS instead of ordinary drinking water for 7 days, during which they were fed normally to establish the mice colitis model. […] The body weight of the mice was recorded every day, and DAI was measured to assess the severity of the colitis according to body weight loss, character of stool, and the degree of hematochezia (Table 3).
After treatment with different formulas, the mice were sacrificed after anesthesia, the colon length was measured, and the colon tissue was fixed with 10% formalin and stained with hematoxylin and eosin (H&E) for pathological examination. To count colonic goblet cells, fixed colonic tissues were also stained using Alcian blue. […]
In addition, a portion of collected colon tissue (50 mg) was homogenized with RIPA lysis buffer (Thermo Fisher, Shanghai, China) to extract total proteins. […] The protein content of supernatant was quantified using a bicinchoninic acid (BCA) protein assay kit (Thermo Fisher, Shanghai, China). The concentration of pro‐inflammatory cytokines such as TNF‐α and IL‐1β was measured by ELISA kit (Enzyme‐linked Biotechnology Co., Ltd., China).

[1] = Pharmacokinetic study after oral administration; type: in vivo, SD rats
Description: Nine male SD rats were randomly divided into three groups (n = 3). […] Moreover, 500 μL of blood was taken before administration, and 300 μL of blood was taken from the heart at 0.25, 0.5, 1, 2, 4, 6, 9, 12, and 24 h after administration. The plasma samples were centrifuged at 3000 r/min for 10 min. Subsequently, 100 μL of plasma was mixed with 10 μL methanol containing internal standard (rheum emodin, 20 μg/mL). After vortexing for 3 min, 250 μL ethyl acetate was added, and the mixture was centrifuged at 3000 r/min for 10 min. The extraction residue was reconstituted in 100 μL of mobile phase and determined by HPLC. The mobile phase was a mixture of acetonitrile: water (containing 2% acetic acid) (52:48, v/v), the flow rate was 1 mL/min, and the detection wavelength was 426 nm. Pharmacokinetic parameters were calculated using PK SOLVER for the noncompartmental model.

HT29‐MTX = assay: Cellular uptake of the NPs loaded with CUR (CLSM, HPLC); type: cell-based; details: CUR 5–20 μg/mL, 2 and 4 h, CLSM fluorescence / HPLC
Description: HT29‐MTX was seeded in the 12‐well plate with 2 × 10^5 cells/well and incubated overnight. […] After co‐incubation for prescribed time intervals (2 and 4 h), the cells were cleaned with PBS and lysed by 1% Triton X‐100 at 4°C. […] The cellular uptake efficiency was calculated using Formula (11). In addition, after fixation with 4% paraformaldehyde, the HT29‐MTX stained with Hoechst 33342 were observed by CLSM. (11) Cellular uptake%=Cellular intake ofCUR/Total amount ofCURadded×100.
HT29-MTX was seeded in the 12-well plate with 2×10^5 cells/well and incubated overnight. […] After co-incubation for prescribed time intervals (2 and 4 h), the cells were cleaned with PBS and lysed by 1% Triton X-100 at 4 ℃. […] In addition, the HT29-MTX stained with Hoechst 33342 were observed by CLSM.

[2] = In vivo absorption in ligated small intestinal loops (CLSM); details: SD rats, 2 h
Description: In vivo transportation of the FITC‐labeled PA‐N‐2‐HACC NPs and FITC‐labeled PA‐N‐2‐HACC‐Cys NPs through the epithelial mucosa was qualitatively analyzed using […] in vivo absorption study.[69] Male SD rats (6–8 weeks, 230–250 g) were anesthetized by chloral hydrate, and 2‐cm sections of small intestinal loops were ligated at both ends. Then, 100 μL of 1 mg/mL FITC‐labeled PA‐N‐2‐HACC NPs and PA‐N‐2‐HACC‐Cys NPs were administered into different intestinal loops of the same SD rats (n = 3). […] After 2 h, the rats were sacrificed, and the loops treated with the FITC‐labeled NPs were withdrawn and washed with PBS (pH = 7.4). After fixation in 4% paraformaldehyde for 4 h and dehydration in 30% sucrose overnight, the loops were embedded in optimal cutting temperature compound and sectioned into 10‐μm slices using a freezing microtome (Leica CM1860, Wetzlar, Germany). Cell nuclei were stained with Hoechst 33342 for 10 min and visualized using CLSM.
All the animal care and experimental protocols were in accordance with the “National Research Council's Guide for the Care and Use of Laboratory Animals”. Male SD rats (6-8 weeks, 230-250 g) were anesthetized by chloral hydrate, and 2 cm sections of small intestinal loops were ligated at both ends. […]

[3] = Cytotoxicity assay (CCK‐8) on HepG‐2; type: cell-based; details: human, HepG-2 cells; read-out: Cell viability of HepG‐2
Description: HT29‐MTX and HepG‐2 were cultured in RPMI medium and MEM, respectively, supplemented with 10% fetal bovine serum, 1% (v/v) penicillin, and streptomycin. HT29‐MTX or HepG‐2 were seeded (100 μL) into a 96‐well plate at a cell density of 1 × 10^4 cells/well. […] After co‐incubation for 24 h, the cytotoxicity was analyzed by CCK‐8 assay (Cell Counting Kit‐8, Beyotime).

[4] = male, SD, rat, plasma, po, 50 mg/kg

## COc1cc(/C=C/C(=O)CC(=O)/C=C/c2ccc(O)c(OC)c2)ccc1O [CUR, Curcumin]
DSS‐induced colitis
  Clinical symptoms (body weight loss, colon length shortening, DAI increase): significantly improved
  Colonic epithelial mucosa / goblet cells (Alcian blue staining): relieved the damage caused by DSS
[1]; SD rats, oral, CUR dose 50 mg/kg, n = 3
  CL: 782.7 ± 18.7 mL/min/kg
[1]; [4]
  Cmax: 41 ± 10 ng/mL
  MRT: 4.71 ± 0.48 h
  Tmax: 1 h
  half-life: 3.27 ± 0.32 h
[1]; male, SD, rat, plasma, po, 50 mg/kg, read-out: AUC0‐∞
  AUC: 252 ± 110 ng·h/mL
HT29‐MTX
  Cellular uptake of CUR in HT29‐MTX (in words): weak fluorescence intensity
[2]
  Fluorescence signal in intestinal tissue (in vivo absorption, in words): weak green fluorescence signal
[3]
  viability at 24 h, 12.5 μg/mL: 77.5%
